In ChEMBL document CHEMBL1142831, “Identification of a potent non-hydroxamate histone deacetylase inhibitor by mechanism-based drug design” (Bioorg Med Chem Lett, 2005):

molecular target: Histone deacetylase (Homo sapiens) (UniProt Q13547+O15379+Q9UBN7+Q92769+Q9UQL6+Q8WUI4+Q9BY41+Q96DB2+P56524+Q9UKV0+Q969S8); conditions: HeLa, at 100 µM
Description: Percentage inhibition against histone deacetylase of HeLa cells at 100 uM

inhibition [%]	Compound
33	CS(=O)(=O)CCCCCCC(=O)Nc1ccccc1
99	O=C(CS)NCCCCCC(=O)Nc1ccccc1
72	CC(=O)SCC(=O)NCCCCCC(=O)Nc1ccccc1
96	O=C(CS)NCCCCCCC(=O)Nc1ccccc1
10	CS(=O)(=O)NCCCCCC(=O)Nc1ccccc1
78	O=C(CCS)NCCCCCC(=O)Nc1ccccc1
88	O=C(CS)NCCCCC(=O)Nc1ccccc1

molecular target: Histone deacetylase; assay: Inhibitory concentration against histone deacetylase of HeLa cells; assay type: cell-based, Homo sapiens; conditions: not given

IC50 [µM]	Compound
230	CS(=O)(=O)CCCCCCC(=O)Nc1ccccc1
22	CC(=O)SCC(=O)NCCCCCC(=O)Nc1ccccc1
3	O=C(CS)NCCCCCCC(=O)Nc1ccccc1
7500	CS(=O)(=O)NCCCCCC(=O)Nc1ccccc1
> 100	NCC(=O)NCCCCCC(=O)Nc1ccccc1
> 100	O=C(CO)NCCCCCC(=O)Nc1ccccc1
24	O=C(CCS)NCCCCCC(=O)Nc1ccccc1
11	O=C(CS)NCCCCC(=O)Nc1ccccc1
